Measured values reported in US20230391739A1, “ARYL DERIVATIVES FOR TREATING TRPM3 MEDIATED DISORDERS” (Katholieke Universiteit Leuven, priority 2020, published 2023).

What follows are compounds tested against T1, mouse TRPM3α2 (mTRPM3) ion channel (Mus musculus, UniProt J9SQF3) (assay: TRPM3 ion channel driven Ca2+ uptake, Fluo-4 AM assay, PS-stimulated (mTRPM3)). Details: TRPM3 overexpressing flip-in HEK293 cells stimulated with Pregnenolone sulfate (PS) 50 μM, activity ranges A, B, C.
T1 construct: expressed in transfected cells; host or cells: flip-in HEK293
Assay type: cell-based
Description: Monitoring the TRPM3 Ion Channel Driven Ca^2+ Uptake.
In order to monitor the inhibition of the mouse TRPM3α2 (mTRPM3) ion channel by the compounds of the invention, a cellular system making use of an mTRPM3alpha2 or hTRPM3 overexpressing cell line (flip-in HEK293) was used. The TRPM3 channel was stimulated/opened with Pregnenolone sulfate (PS) (50 μM) which results in Ca^2+ influx.
For mTRPM3, the intracellular Ca^2+ was measured with a Calcium responsive dye, Fluor-4 AM ester (Invitrogen). Cells were cultured until a confluence of 80-90%, washed with Versene (Invitrogen) and detached from the surface by a short incubation with 0.05% Trypsin (Invitrogen). The trypsination process was stopped by the addition of complete cell culture medium (DMEM, glutamax, 10% FCS, NEAA, Pen-Strep). Cells were collected and resuspended in Krebs buffer without Calcium at RT.
Prior the cell seeding (±2000 cells/well into a black, 384 well plate (Greiner)) the diluted compound was added in the assay plate, together with the PS dissolved in Krebs buffer containing Calcium. […] Directly after cell addition the plates were read on an Envision fluorescence reader (Perkin Elmer) by an Excitation of 485 nm and emission at 535 nm.
Channel inhibition was calculated compared to a non-PS stimulated control versus a condition stimulated with PS (50 μM) with vehicle. The ability of the compounds of the invention to inhibit this activity was determined as: Percentage inhibition=[1−((RFU determined for sample with test compound present−RFU determined for sample with positive control inhibitor) divided by (RFU determined in the presence of vehicle−RFU determined for sample with positive control inhibitor))]*100.
The activities of the Example compounds tested are depicted in the table below.

T1 sequence (J9SQF3 1-1709 isoform J9SQF3-12): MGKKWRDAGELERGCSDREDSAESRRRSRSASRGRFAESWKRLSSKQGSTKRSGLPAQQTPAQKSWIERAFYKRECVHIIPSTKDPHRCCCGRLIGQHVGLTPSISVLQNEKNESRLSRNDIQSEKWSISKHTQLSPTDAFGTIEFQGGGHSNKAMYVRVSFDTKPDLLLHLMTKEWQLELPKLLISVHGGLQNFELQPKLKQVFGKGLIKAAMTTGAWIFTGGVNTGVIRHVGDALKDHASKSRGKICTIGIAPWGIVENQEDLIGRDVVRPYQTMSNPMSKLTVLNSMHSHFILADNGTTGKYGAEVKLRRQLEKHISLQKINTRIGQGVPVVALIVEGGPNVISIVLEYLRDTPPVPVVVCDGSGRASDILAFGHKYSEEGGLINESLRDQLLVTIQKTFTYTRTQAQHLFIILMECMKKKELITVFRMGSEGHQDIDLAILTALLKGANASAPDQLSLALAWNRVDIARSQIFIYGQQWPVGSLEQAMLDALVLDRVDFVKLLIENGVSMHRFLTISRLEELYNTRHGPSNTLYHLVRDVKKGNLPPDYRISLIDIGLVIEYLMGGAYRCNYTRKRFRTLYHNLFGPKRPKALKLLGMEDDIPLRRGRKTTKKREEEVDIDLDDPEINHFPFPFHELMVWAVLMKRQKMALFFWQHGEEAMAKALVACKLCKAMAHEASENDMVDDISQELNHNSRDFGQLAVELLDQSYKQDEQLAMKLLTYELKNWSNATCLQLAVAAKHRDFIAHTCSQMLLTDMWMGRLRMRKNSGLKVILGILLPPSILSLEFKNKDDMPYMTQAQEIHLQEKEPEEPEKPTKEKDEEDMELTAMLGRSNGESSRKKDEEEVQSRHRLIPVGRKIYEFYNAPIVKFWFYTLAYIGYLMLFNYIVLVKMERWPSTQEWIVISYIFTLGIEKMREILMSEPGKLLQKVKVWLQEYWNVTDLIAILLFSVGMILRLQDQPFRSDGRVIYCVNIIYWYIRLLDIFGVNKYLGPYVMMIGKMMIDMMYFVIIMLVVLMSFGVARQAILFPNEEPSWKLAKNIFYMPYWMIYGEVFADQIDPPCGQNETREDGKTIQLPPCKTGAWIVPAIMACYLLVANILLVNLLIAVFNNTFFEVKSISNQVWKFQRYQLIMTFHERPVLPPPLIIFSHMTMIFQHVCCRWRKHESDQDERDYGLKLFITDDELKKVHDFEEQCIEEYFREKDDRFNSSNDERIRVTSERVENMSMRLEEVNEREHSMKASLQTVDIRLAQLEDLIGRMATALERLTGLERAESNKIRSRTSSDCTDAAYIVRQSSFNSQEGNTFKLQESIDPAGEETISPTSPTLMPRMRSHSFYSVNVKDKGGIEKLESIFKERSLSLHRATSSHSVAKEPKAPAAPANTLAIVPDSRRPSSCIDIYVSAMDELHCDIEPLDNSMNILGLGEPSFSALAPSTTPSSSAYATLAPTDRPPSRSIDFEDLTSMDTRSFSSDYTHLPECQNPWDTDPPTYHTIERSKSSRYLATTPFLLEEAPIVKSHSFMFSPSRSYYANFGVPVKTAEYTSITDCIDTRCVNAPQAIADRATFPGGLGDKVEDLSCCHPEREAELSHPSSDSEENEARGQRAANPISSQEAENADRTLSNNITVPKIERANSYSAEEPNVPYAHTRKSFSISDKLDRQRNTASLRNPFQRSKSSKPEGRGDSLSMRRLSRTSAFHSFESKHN

Compound | IC50 [µM]
CCNC(=O)c1c(C)oc2ccc(OCc3ccccc3)cc12 [Cpd 038, 5-(benzyloxy)-N-ethyl-2-methylbenzofuran-3-carboxamide] | 1 to 20
Cc1oc2ccc(OCc3ccccc3)cc2c1C(=O)NCc1ccnn1C [Cpd 104, 5-(benzyloxy)-2-methyl-N-((1-methyl-1H-pyrazol-5-yl)methyl)benzofuran-3-carboxamide] | < 1
Cc1oc2ccc(OCc3ccccc3)cc2c1C(=O)NCc1ccccn1 [Cpd 099, 5-(benzyloxy)-2-methyl-N-(pyridin-2-ylmethyl)benzofuran-3-carboxamide] | 1 to 20
Cc1oc2ccc(OCc3cccc(Cl)c3)cc2c1C(=O)O [Cpd 017, 5-((3-chlorobenzyl)oxy)-2-methylbenzofuran-3-carboxylic acid] | 1 to 20
Cc1oc2ccc(OCc3ccccc3)cc2c1C(=O)NC1CCN2CCCC12 (single isomer, unassigned) [Cpd 144-Dia 1, 5-(benzyloxy)-N-(hexahydro-1H-pyrrolizin-1-yl)-2-methylbenzofuran-3-carboxamide] | < 1
COCc1oc2ccc(OCc3cccc(F)c3)cc2c1C(=O)O [Cpd 020, 5-((3-fluorobenzyl)oxy)-2-(methoxymethyl)benzofuran-3-carboxylic acid] | 1 to 20
Cc1oc2ccc(OCc3ccccc3)cc2c1C(=O)N1CCC(NC(=O)OC(C)(C)C)CC1 [Cpd 248, tert-butyl (1-(5-(benzyloxy)-2-methylbenzofuran-3-carbonyl)piperidin-4-yl)carbamate] | > 20
Cc1oc2ccc(OCc3ccccc3)cc2c1C(=O)NS(C)(=O)=O [Cpd 063, 5-(benzyloxy)-2-methyl-N-(methylsulfonyl)benzofuran-3-carboxamide] | 1 to 20
Cc1oc2ccc(OCc3ccccc3)cc2c1C(=O)N[C@@H]1CCN(C(=O)OC(C)(C)C)[C@@H](C)C1 (racemic) [Cpd 251, tert-butyl trans-4-(5-(benzyloxy)-2-methylbenzofuran-3-carboxamido)-2-methylpiperidine-1-carboxylate] | < 1
Cc1oc2cc(Cl)c(OCc3ccccc3)cc2c1C(=O)NC1CNCC1(F)F (single isomer, unassigned) [Cpd 300-En 2, 5-(benzyloxy)-6-chloro-N-(4,4-difluoropyrrolidin-3-yl)-2-methylbenzofuran-3-carboxamide] | > 20
CCN1CCC[C@@H]1CNC(=O)c1c(C)oc2ccc(OCc3ccccc3)cc12 [Cpd 153, (R)-5-(benzyloxy)-N-((l-ethylpyrrolidin-2-yl)methyl)-2-methylbenzofuran-3-carboxamide] | < 1
Cc1oc2ccc(OCc3ccccc3)cc2c1C(=O)NC1CCNCC1(F)F (centres unmarked) [Cpd 173, 5-(benzyloxy)-N-(3,3-difluoropiperidin-4-yl)-2-methylbenzofuran-3-carboxamide] | < 1
Cc1oc2ccc(OCc3ccccc3)cc2c1C(=O)NC1CCN(C)C(C)C1 (centres unmarked) [Cpd 155, 5-(benzyloxy)-N-(1,2-dimethylpiperidin-4-yl)-2-methylbenzofuran-3-carboxamide] | < 1
Cc1oc2ccc(OCc3ccccc3)c(C#N)c2c1C(=O)NC1CNCC1(F)F (single isomer, unassigned) [Cpd 297-En 1, 5-(benzyloxy)-4-cyano-N-(4,4-difluoropyrrolidin-3-yl)-2-methylbenzofuran-3-carboxamide] | < 1
Cc1oc2c(C)cc(OCc3ccccc3)cc2c1C(=O)NC1CNCC1(F)F (single isomer, unassigned) [Cpd 307-En 1, 5-(benzyloxy)-N-(4,4-difluoropyrrolidin-3-yl)-2,7-dimethylbenzofuran-3-carboxamide] | 1 to 20
Cc1oc2ccc(OCc3ccccc3)cc2c1C(=O)N[C@@H]1CCN(C(=O)OC(C)(C)C)C1 [Cpd 238, tert-butyl (R)-3-(5-(benzyloxy)-2-methylbenzofuran-3-carboxamido)pyrrolidine-1-carboxylate] | > 20
Cc1oc2ccc(OCc3ccccc3)cc2c1C(=O)NC1CCNC1=O (centres unmarked) [Cpd 071, 5-(benzyloxy)-2-methyl-N-(2-oxopyrrolidin-3-yl)benzofuran-3-carboxamide] | < 1
COc1ccccc1COc1ccc2oc(C)c(C(=O)O)c2c1 [Cpd 013, 5-((2-methoxybenzyl)oxy)-2-methylbenzofuran-3-carboxylic acid] | 1 to 20
Cc1oc2ccc(OCc3ccccc3)cc2c1C(=O)NC1CCC(O)C1 (centres unmarked) [Cpd 086, 5-(benzyloxy)-N-(3-hydroxycyclopentyl)-2-methylbenzofuran-3-carboxamide] | < 1
Cc1cc(CNC(=O)c2c(C)oc3ccc(OCc4ccccc4)cc23)no1 [Cpd 105, 5-(benzyloxy)-2-methyl-N-((5-methylisoxazol-3-yl)methyl)benzofuran-3-carboxamide] | < 1
Cc1oc2ccc(OCc3cccc(OC(F)(F)F)c3)cc2c1C(=O)NC1CCN(C)CC1 [Cpd 244, 2-methyl-N-(1-methylpiperidin-4-yl)-5-((3-(trifluoromethoxy)benzyl)oxy)benzofuran-3-carboxamide] | 1 to 20
Cc1oc2ccc(OCc3c(F)cccc3Cl)cc2c1C(N)=O [Cpd 041, 5-((2-chloro-6-fluorobenzyl)oxy)-2-methylbenzofuran-3-carboxamide] | < 1

Now from value to compound:

IC50 [µM] | Compound
< 1 | Cc1oc2ccc(OCc3c(F)cccc3F)cc2c1C(=O)NC1(CO)CCOCC1 [Cpd 218, 5-((2,6-difluorobenzyl)oxy)-N-(4-(hydroxymethyl)tetrahydro-2H-pyran-4-yl)-2-methylbenzo-furan-3-carboxamide]
< 1 | Cc1oc2ccc(OCc3ccccc3F)cc2c1C(=O)NC1(CO)CC1 [Cpd 325, 5-((2-fluorobenzyl)oxy)-N-(1-(hydroxymethyl)cyclopropyl)-2-methylbenzofuran-3-carboxamide]
< 1 | Cc1oc2ccc(OCc3ccccc3F)cc2c1C(=O)N[C@@H]1COC[C@H]1O (single isomer, unassigned) [Cpd 330-En 1]
< 1 | Cc1oc2ccc(OCc3ccccc3)cc2c1C(=O)NC1CCCCC1 [Cpd 066, 5-(benzyloxy)-N-cyclohexyl-2-methylbenzofuran-3-carboxamide]
< 1 | Cc1oc2ccc(OCc3ccccc3F)cc2c1C(=O)NC(C)(CO)CO [Cpd 312, N-(1,3-dihydroxy-2-methylpropan-2-yl)-5-((2-fluorobenzyl)oxy)-2-methylbenzofuran-3-carboxamide]
1 to 20 | Cc1oc2ccc(COc3ccccc3F)cc2c1C(=O)NC(C)(C)CO [Cpd 319, 5-((2-fluorophenoxy)methyl)-N-(1-hydroxy-2-methylpropan-2-yl)-2-methylbenzofuran-3-carboxamide]
< 1 | Cc1oc2ccc(OC(CO)c3ccccc3F)cc2c1C(=O)NC1(C(N)=O)CCC1 (single isomer, unassigned) [Cpd 345-En 1, N-(1-carbamoylcyclobutyl)-5-(1-(2-fluorophenyl)-2-hydroxyethoxy)-2-methylbenzofuran-3-carboxamide]
< 1 | Cc1oc2ccc(OC(C)c3ccccc3C(F)(F)F)cc2c1C(=O)N[C@H]1CCNC1 (mixture of isomers) [Cpd 220, rac-2-methyl-N—((R)-pyrrolidin-3-yl)-5-(1-(2-(trifluoromethyl)phenyl)ethoxy)benzofuran-3-carboxamide]
1 to 20 | Cc1oc2ccc(COc3ccccc3F)cc2c1C(=O)NC(CO)C(N)=O (single isomer, unassigned) [Cpd 321-En 1, N-(1-amino-3-hydroxy-1-oxopropan-2-yl)-5-((2-fluorophenoxy)methyl)-2-methylbenzofuran-3-carboxamide]
< 1 | Cc1oc2ccc(OC(C)(C)c3ccccc3)cc2c1C(=O)NC1(CO)CCOCC1 [Cpd 316, N-(4-(hydroxymethyl)tetrahydro-2H-pyran-4-yl)-2-methyl-5-((2-phenylpropan-2-yl)oxy)benzofuran-3-carboxamide]
1 to 20 | CC(=O)N1CC[C@H](NC(=O)c2c(C)oc3ccc(OCc4ccccc4)cc23)C1 [Cpd 145, (S)—N-(1-acetylpyrrolidin-3-yl)-5-(benzyloxy)-2-methylbenzofuran-3-carboxamide]
< 1 | Cc1oc2ccc(OCc3ccccc3F)cc2c1C(=O)NC1(CO)CCNC1=O (single isomer, unassigned) [Cpd 334-En 2]
< 1 | COCC(Oc1ccc2oc(C)c(C(=O)N[C@@H](CO)C(N)=O)c2c1)c1ccccc1 (single isomer, unassigned) [Cpd 346-En 2]
< 1 | Cc1oc2ccc(OCc3ccccc3)cc2c1C(=O)NO [Cpd 036, 5-(benzyloxy)-N-hydroxy-2-methylbenzofuran-3-carboxamide]
1 to 20 | Cc1oc2ccc(OC(C)c3ccccc3)cc2c1C(=O)O (centres unmarked) [Cpd 004, 2-methyl-5-(1-phenylethoxy)benzofuran-3-carboxylic acid]
< 1 | Cc1oc2ccc(OCc3ccccc3F)cc2c1C(=O)NS(=O)(=O)C1CC1 [Cpd 175, N-(cyclopropylsulfonyl)-5-((2-fluorobenzyl)oxy)-2-methylbenzofuran-3-carboxamide]
